Measurements from patent publication US12421252B2, “Spiro (isobenzofuranazetidine) compounds for the treatment of autoimmune disease” (Hoffmann-La Roche Inc., priority 2020, dated 2025).

Molecular target: T1, human TLR7 (Homo sapiens, UniProt Q9NYK1)
T1 sequence (Q9NYK1 27-1049): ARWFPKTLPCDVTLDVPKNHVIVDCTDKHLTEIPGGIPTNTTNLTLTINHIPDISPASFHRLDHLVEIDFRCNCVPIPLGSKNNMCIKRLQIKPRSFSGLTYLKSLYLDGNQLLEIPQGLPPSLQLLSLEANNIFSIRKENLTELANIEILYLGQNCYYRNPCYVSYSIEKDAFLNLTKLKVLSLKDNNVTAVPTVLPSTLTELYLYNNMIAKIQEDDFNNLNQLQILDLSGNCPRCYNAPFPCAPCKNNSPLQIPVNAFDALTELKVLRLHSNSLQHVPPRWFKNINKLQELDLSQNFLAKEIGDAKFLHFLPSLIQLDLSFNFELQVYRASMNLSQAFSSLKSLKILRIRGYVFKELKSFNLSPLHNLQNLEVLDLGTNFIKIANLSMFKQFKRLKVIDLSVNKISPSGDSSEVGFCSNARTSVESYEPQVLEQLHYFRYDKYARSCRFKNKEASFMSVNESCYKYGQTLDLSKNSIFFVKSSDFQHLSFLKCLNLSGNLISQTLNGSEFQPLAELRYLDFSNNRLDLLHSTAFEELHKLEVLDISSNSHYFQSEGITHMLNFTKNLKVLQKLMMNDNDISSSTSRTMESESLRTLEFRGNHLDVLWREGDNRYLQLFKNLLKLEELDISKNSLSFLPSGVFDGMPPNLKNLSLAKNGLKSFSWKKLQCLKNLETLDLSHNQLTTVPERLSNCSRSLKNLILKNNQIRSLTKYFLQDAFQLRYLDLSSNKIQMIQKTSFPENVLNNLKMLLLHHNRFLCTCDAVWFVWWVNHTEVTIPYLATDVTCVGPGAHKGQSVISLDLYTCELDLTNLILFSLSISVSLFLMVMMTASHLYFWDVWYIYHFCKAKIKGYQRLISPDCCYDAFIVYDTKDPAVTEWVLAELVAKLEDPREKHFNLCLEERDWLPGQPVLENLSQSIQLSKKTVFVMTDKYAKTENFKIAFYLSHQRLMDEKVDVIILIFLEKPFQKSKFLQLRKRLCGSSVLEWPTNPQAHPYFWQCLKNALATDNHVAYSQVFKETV
Experiment: HEK293-Blue-hTLR-7 cells assay
Assay type: cell-based
Details: HEK293-Blue-hTLR7 cells, R848 stimulation, 20 hrs, SEAP reporter; read-out: HEK/hTLR7 IC50
Excerpt: HEK293-Blue-hTLR-7 cells assay:
A stable HEK293-Blue-hTLR-7 cell line was purchased from InvivoGen (Cat. #: hkb-htlr7, San Diego, California, USA). These cells were originally designed for studying the stimulation of human TLR7 by monitoring the activation of NF-κB. A SEAP (secreted embryonic alkaline phosphatase) reporter gene was placed under the control of the IFN-β minimal promoter fused to five NF-κB and AP-1-binding sites. The SEAP was induced by activating NF-κB and AP-1 via stimulating HEK-Blue hTLR7 cells with TLR7 ligands. Therefore the reporter expression was declined by TLR7 antagonist under the stimulation of a ligand, such as R848 (Resiquimod), for incubation of 20 hrs. The cell culture supernatant SEAP reporter activity was determined using QUANTI-Blue™ kit (Cat. #: rep-qb1, Invivogen, San Diego, Ca, USA) at a wavelength of 640 nm, a detection medium that turns purple or blue in the presence of alkaline phosphatase.
HEK293-Blue-hTLR7 cells were incubated at a density of 250,000˜450,000 cells/mL in a volume of 170 μL in a 96-well plate in Dulbecco's Modified Eagle's medium (DMEM) containing 4.5 g/L glucose, 50 U/mL penicillin, […], […], 2 mM L-glutamine, 10% (v/v) heat-inactivated fetal bovine serum with addition of 20 μL test compound in a serial dilution in the presence of final DMSO at 1% and 10 μL of 20 uM R848 in above DMEM, perform incubation under 37° C. in a CO2 incubator for 20 hrs. Then 20 μL of the supernatant from each well was incubated with 180 μL Quanti-blue substrate solution at 37° C. for 2 hrs and the absorbance was read at 620˜655 nm using a spectrophotometer. The signaling pathway that TLR7 activation leads to downstream NF-κB activation has been widely accepted, and therefore similar reporter assay was modified for evaluating TLR7 antagonist.

| IC50 [nM] | Structure (SMILES) |
| --- | --- |
| 16 | C[C@@H]1CN(c2ccc(C#N)n3ncc(F)c23)C[C@H](CN2CC3(C2)OCc2cc(N4CC5(CNCCO5)C4)ccc23)O1 [Example 4, 3-fluoro-4-[(2R,6S)-2-methyl-6-[[6-(5-oxa-2,8-diazaspiro[3.5]nonan-2-yl)spiro[1H-isobenzofuran-3,3′-azetidine]-1′-yl]methyl]morpholin-4-yl]pyrazolo[1,5-a]pyridine-7-carbonitrile] |
| 4 | [2H]c1ccc2c(N3C[C@H](CN4CC5(C4)OCc4cc(N6CC(N)C6)ncc45)O[C@H](C)C3)ccc(C#N)c2n1 [Example 32, 5-[(2S,6R)-2-[[6-(3-aminoazetidin-1-yl)spiro[1H-furo[3,4-c]pyridine-3,3′-azetidine]-1′-yl]methyl]-6-methyl-morpholin-4-yl]-2-deuterio-quinoline-8-carbonitrile] |
| 16 | C[C@@H]1CN(c2ccc(C#N)n3ncc(F)c23)C[C@H](CN2CC3(C2)OCc2cc(N4CC(C)(N)C4)ncc23)O1 [Example 24, 4-[(2S,6R)-2-[[6-(3-amino-3-methyl-azetidin-1-yl)spiro[1H-furo[3,4-c]pyridine-3,3′-azetidine]-1′-yl]methyl]-6-methyl-morpholin-4-yl]-3-fluoro-pyrazolo[1,5-a]pyridine-7-carbonitrile] |
| 5 | C[C@@H]1CN(c2ccc(C#N)n3ncc(F)c23)C[C@H](CN2CC3(C2)OCc2cc(N4CC(N)C4)ccc23)O1 [Example 9, 4-[(2S,6R)-2-[[6-(3-aminoazetidin-1-yl)spiro[1H-isobenzofuran-3,3′-azetidine]-1′-yl]methyl]-6-methyl-morpholin-4-yl]-3-fluoro-pyrazolo[1,5-a]pyridine-7-carbonitrile] |
| 8 | C[C@@H]1CN(c2ccc(C#N)n3ncc(F)c23)C[C@H](CN2CC3(C2)OCc2cc(N4CCNCC4)ccc23)O1 [Example 6, 3-fluoro-4-[(2R,6S)-2-methyl-6-[(6-piperazin-1-ylspiro[1H-isobenzofuran-3,3′-azetidine]-1′-yl)methyl]morpholin-4-yl]pyrazolo[1,5-a]pyridine-7-carbonitrile] |
| 9 | [2H]c1ccc2c(N3C[C@H](CN4CC5(C4)OCc4cc(N6CC(N)C6)cnc45)O[C@H](C)C3)ccc(C#N)c2n1 [Example 20, 5-[(2S,6R)-2-[[3-(3-aminoazetidin-1-yl)spiro[5H-furo[3,4-b]pyridine-7,3′-azetidine]-1′-yl]methyl]-6-methyl-morpholin-4-yl]-2-deuterio-quinoline-8-carbonitrile] |
| 7 | [2H]c1ccc2c(N3C[C@H](CN4CC5(C4)OCc4cc(N6C[C@H]7NCCO[C@@H]7C6)ncc45)O[C@H](C)C3)ccc(C#N)c2n1 [Example 28, 5-[(2S,6R)-2-[[6-[(4aR,7aR)-3,4,4a,5,7,7a-hexahydro-2H-pyrrolo[3,4-b][1,4]oxazin-6-yl]spiro[1H-furo[3,4-c]pyridine-3,3′-azetidine]-1′-yl]methyl]-6-methyl-morpholin-4-yl]-2-deuterio-quinoline-8-carbonitrile] |
| 8 | C[C@@H]1CN(c2ccc(C#N)n3ncc(F)c23)C[C@H](CN2CC3(C2)OCc2cc(N4C[C@H](N)[C@@H](O)C4)ccc23)O1 [Example 10, 4-[(2S,6R)-2-[[6-[(3S,4S)-3-amino-4-hydroxy-pyrrolidin-1-yl]spiro[1H-isobenzofuran-3,3′-azetidine]-1′-yl]methyl]-6-methyl-morpholin-4-yl]-3-fluoro-pyrazolo[1,5-a]pyridine-7-carbonitrile] |
